The values below come from US20070225363A1, “Methods and Agents for Inhibiting Dynamin-Dependent Endocytosis” (the University of Newcastle Research Associates Ltd., priority 2003, published 2007).

Experiment [1] addresses T1, dynamin II (Rattus norvegicus, UniProt P39052).
T1 construct: made in house; host or cells: insect cells
T1 sequence (P39052 1-870): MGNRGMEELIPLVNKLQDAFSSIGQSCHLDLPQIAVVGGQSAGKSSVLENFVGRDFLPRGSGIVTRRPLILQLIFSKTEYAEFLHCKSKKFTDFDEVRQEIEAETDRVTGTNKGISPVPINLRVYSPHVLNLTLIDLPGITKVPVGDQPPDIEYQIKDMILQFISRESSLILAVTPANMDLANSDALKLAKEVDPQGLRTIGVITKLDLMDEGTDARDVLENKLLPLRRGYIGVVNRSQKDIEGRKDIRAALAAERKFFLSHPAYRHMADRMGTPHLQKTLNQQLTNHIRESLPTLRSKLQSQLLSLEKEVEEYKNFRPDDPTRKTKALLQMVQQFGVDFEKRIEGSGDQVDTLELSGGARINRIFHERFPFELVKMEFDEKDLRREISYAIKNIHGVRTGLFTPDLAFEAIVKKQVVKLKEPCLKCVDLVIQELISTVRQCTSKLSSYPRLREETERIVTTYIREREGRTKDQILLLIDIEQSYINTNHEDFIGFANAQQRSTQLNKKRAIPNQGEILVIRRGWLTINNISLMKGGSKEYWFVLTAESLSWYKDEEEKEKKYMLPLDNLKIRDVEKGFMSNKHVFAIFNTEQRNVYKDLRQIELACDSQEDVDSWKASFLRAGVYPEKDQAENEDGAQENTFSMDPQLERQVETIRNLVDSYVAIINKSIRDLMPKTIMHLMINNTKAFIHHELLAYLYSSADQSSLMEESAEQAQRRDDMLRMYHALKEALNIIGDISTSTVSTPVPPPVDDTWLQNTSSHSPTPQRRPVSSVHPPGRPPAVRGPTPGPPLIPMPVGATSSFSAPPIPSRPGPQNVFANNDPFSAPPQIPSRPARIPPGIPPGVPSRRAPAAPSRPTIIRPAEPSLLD
Put plainly: Dynamin II GTPase assay ([γ-32P]GTP hydrolysis). It is filed as biochemical. The following applies: GTPase activity, FIG. 1e. As to the method: The plasmid for GST-Amph2-SH3 (muscle Amph2) (Butler et al., 1997) was provided by Pieto DeCamilli, Yale, Connecticut, USA, in pGEX2T vectors. The plasmid was grown in E. coli and the GST-Amph2-SH3 fusion protein was purified on glutathione (GSH)-Sepharose by elution with 10 mM reduced GSH in 20 mM Tris-HCl, pH 7.5, dialysed against the same buffer without GSH and stored at 4° C. Dynamin was purified from sheep brain by extraction from the peripheral membrane fraction of whole brain (Robinson et al., 1993) and affinity purification on GST-Amph2-SH3-sepharose as previously described (Marks and McMahon., 1998), yielding 8 mg protein from 250 g sheep brain. Recombinant dynamin II was expressed in insect cells and was a gift from Dr Sandra Schmid (Scripps, San Diego, Calif.). Recombinant dynamin I lacking the PH domain (dynamin PH, provided by Robin Scaife) was expressed in insect cells using baculoviral infection (Salim et al., 1996).
Dynamin GTPase activity was determined by hydrolysis of [ ? -^32P]GTP by a method modified from that described previously (Robinson et al., 1993). […] Dynamin activity was measured as either basal or phospholipid-stimulated with the addition of 5 μg/ml L-phosphatidylserine. […] After centrifuging for 5 min (13,000 rpm at room temperature), 200 μl of each supernatant was counted in a -counter for the release of ^32Pi from [ ? -^32P]-GTP.

The subject of experiment [2] is dynamin II. Description: [α-32P]-GTP binding assay, dynamin II. As to the method:
The [α-^32P]-GTP-binding assay was performed in the wells of a 96-well microtitre plate. Dynamin (0.2 μg/well) was added to GTPase buffer and incubated for 10 min at 4 C in the dark. [α-^32P]-GTP (2 μCi/tube) was then added to the reaction and incubated for a further 10 min at 4 C. in the dark. The microtitre plate was then irradiated with a short wavelength ultraviolet lamp at […] for 30 min at a distance of 8 cm. The specificity of photolabelling was determined by comparing the labelling in the presence and absence of 1 mM cold GTP. Samples were then applied to nitrocellulose membranes by aspiration through the wells of a 24 well slot blotter. The nitrocellulose was washed 3 times with PBS and dried. Bound nucleotide was detected by a phosphorimager (Molecular Dynamics).

A further experiment has as its target T2, Rab3A (Homo sapiens, UniProt P20336).
T2 sequence (P20336 1-220): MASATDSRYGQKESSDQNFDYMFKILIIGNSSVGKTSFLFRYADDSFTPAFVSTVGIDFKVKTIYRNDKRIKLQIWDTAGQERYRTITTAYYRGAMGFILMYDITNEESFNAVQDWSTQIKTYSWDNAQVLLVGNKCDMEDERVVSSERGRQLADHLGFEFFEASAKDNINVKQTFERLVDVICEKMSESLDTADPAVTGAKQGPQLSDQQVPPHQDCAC
Put plainly: [α-32P]-GTP binding to small G protein Rab3A. The following applies: data not shown. As to the method:
Competition of these drugs with GTP for the active site of 4 small G proteins (Rab3A, Ras, Arf2, RalA) was also tested.

The structures appear in SMILES notation. “Also recorded” adds a separate entry of the source.

What is called IC50 is the point on the concentration scale where inhibition reaches its midpoint. Read a high IC50 as lower potency. Compound `N#C/C(=C\c1ccc(O)c(O)c1)C(=O)NCCCNC(=O)/C(C#N)=C/c1ccc(O)c(O)c1` [bis-tyrphostin] displayed an IC50 against dynamin II [1] of 500 nM. Also, in the experiment on dynamin II [2], the “[α-32P]-GTP binding to dynamin II in the presence of drug” value is on record as “not seen to decrease; also recorded: not affected”. For the same compound, at Rab3A, the “effect on [α-32P]-GTP binding to Rab3A” value was “neither drug affected”.
